Experimental findings from ChEMBL document CHEMBL1135522, “Novel retinoid X receptor antagonists: specific inhibition of retinoid synergism in RXR-RAR heterodimer actions” (2002) are described below.

Assay [1] has as its system HL-60. The assay is described as follows: Percentage of human promyelocytic leukemia cells HL-60 differentiation induced by Am80 RAR agonist. In kind it is functional.
For assay [2], the system named is HL-60. The assay is described as follows: Percentage inhibition of human promyelocytic leukemia cells HL-60 differentiation induced by combined RAR and RXR agonists; Range is from 34-73. The class given is functional.

For orientation: Inhibition means the share of the control response that was lost under treatment.

Take `CCCCCOc1cc2c(cc1N(C)c1ncc(C(=O)O)cn1)C(C)(C)CCC2(C)C`: the Inhibition in assay [1] is 44%.
On to `CC1(C)CCC(C)(C)c2cc(N(CC3CC3)c3ncc(C(=O)O)cn3)ccc21`, for which the Inhibition in assay [2] is given as 73%.
